The source of these data is patent US8158088B2, “Extractant compositions for co-extracting cesium and strontium, a method of separating cesium and strontium from an aqueous feed, and calixarene compounds” (Battelle Energy Alliance, LLC, priority 2008, dated 2012).

“And” between values parts separate entries of the source, which are not always exact repeats. Identical values can stand only once.

Assay type in all cases: physicochemical
Data set [1] can be described thus: Cesium distribution ratio (DCs), equilibrium batch contact of mixed extractant solvent with nitric acid feed. As to conditions: for DCs: 1.5 HNO3. An excerpt: The distribution of cesium and strontium between the first organic phase (the mixed extractant solvent including the dialkyloxycalix[4]arenebenzocrown-6 compound) and the first aqueous phase (aqueous feed) may be determined by conventional techniques. The distribution ratio for strontium (“DSr”) may be calculated as the ratio of organic phase activity to the aqueous phase activity at equilibrium. High values for the DSr indicate that the strontium is present predominantly in the organic phase while low values for the DSr indicate that the strontium is present predominantly in the aqueous phase. Similarly, the distribution ratio for cesium (“DCs”) may be calculated as the ratio of organic phase activity to the aqueous phase activity at equilibrium. High values for the DCs indicate that the cesium is present predominantly in the organic phase while low values for the DCs indicate that the cesium is present predominantly in the aqueous phase.
Distribution ratios (DM=[M]org/[M]aq) were measured by equilibrium batch contacts between the organic and aqueous phases at an organic-to-aqueous phase ratio (O/A) of unity (O/A=1). All distribution ratio measurements were conducted in a temperature controlled water bath at 25±1° C. The aqueous phase was of the appropriate HNO3 concentration, to which trace quantities (typically, less than 10^−7 M each) of the major radionuclides of interest (^137Cs, ^85Sr, ^154Eu, or ^241Am) were added. The organic and aqueous phases were contacted by vortex mixing for 1 minute. All batch contact experiments were performed at ambient temperature (from approximately 20° C. to approximately 25° C.) unless otherwise noted. Following extraction, the samples were centrifuged for 1 minute and the organic and aqueous phases separated by pipet or centrifugation. The distribution ratios (DSr, or DCs) were calculated as the ratio of the appropriate specific activities in the organic and aqueous phases as determined by γ-ray counting (gamma spectroscopy). The counting time was selected to provide less than approximately 1% statistical uncertainty.
(MC-8, MC-8B, MC-10, MC-10B, MC-12, or MC-12B), 0.075 M DtBuCH18C6, 0.75 M Cs-7SB modifier, and 0.003 M TOA in ISOPAR® L were evaluated for their respective abilities to simultaneously extract cesium and strontium from the aqueous feed simulant composition described in Table 2. The cesium and strontium distribution ratios of the mixed extraction solvents were compared to those of the FPEX I process solvent. The cesium extraction performance and strontium extraction performance of each of the mixed extractant solvents was determined using the batch contact flowsheet presented in FIG. 1, where “E1,” “E2,” and “E3” refer to three forward extraction acts: a first extraction act, a second extraction act, and a third extraction act, respectively, and “St1” and “St2” refer to two backward extraction acts: a first strip act and a second strip act, respectively. […] The aqueous feed 2 and the mixed extractant solvent 4 were combined in a vessel 6 to conduct the extraction. Two phases were formed during the extraction: the first organic phase and the first aqueous phase, with the cesium and strontium substantially distributed in the first organic phase.
The cesium and strontium distribution ratios for the mixed extractant solvents 4 were calculated for the first organic phase and are reported in Tables 3 and 4, respectively, as E1, along with the cesium and strontium distribution ratios for the FPEX I process solvent. The cesium and strontium were stripped from the first (and subsequent) organic phase to recover these radionuclides. For the strips or backward extractions, the first (and subsequent) organic phase was contacted with dilute acidic solution 8, which was 0.01 M HNO3. […]

Data set [2] is described as follows: Solvent stability: strontium distribution ratios as a function of contact time with 1.5 M HNO3. Here is the method:
(§1) The stability of the mixed extractant solvents prepared using dialkyloxycalix[4]arenebenzocrown-6 compounds (MC-8, MC-8B, MC-10, MC-10B, MC-12, or MC-12B) relative to BOBCalixC6 in the FPEX I process solvent was determined. Samples were prepared using each of the dialkyloxycalix[4]arenebenzocrown-6 compounds and contacted with 1.5 M HNO3. The samples included 0.007 M of the respective dialkyloxycalix[4]arenebenzo-crown-6 compound (MC-8, MC-8B, MC-10, MC-10B, MC-12, or MC-12B), 0.075 M DtBuCH18C6, 0.75 M Cs-7SB modifier, and 0.003 M TOA in ISOPAR® L. The stability of the dialkyloxycalix[4]arene-benzocrown-6 based solvents was evaluated by measuring the cesium and strontium distribution ratios as a function of contact time. These cesium and strontium distribution ratios for the mixed extractant solvents are presented in Table 9 and Table 10, respectively, along with the cesium and strontium distribution ratios for the FPEX I process solvent. The symbol “-” is used in Tables 9 and 10 to indicate no data was collected.
(§2) This degradation is likely due to chemical attack or nitration of the BOBCalixC6 in the FPEX I process solvent. […] However, it is difficult to compare the relative extents of degradation. In order to compare the different extractants, the distribution ratio data presented in Tables 9 and 10 were normalized to the values obtained at t=0 days contact. The normalized cesium and strontium distribution ratios for the FPEX I process solvent and the mixed extractant solvents as a function of contact time are presented in FIGS. 2 and 3, respectively.

The nature of data set [3]: Strontium distribution ratio (DSr), equilibrium batch contact of mixed extractant solvent with nitric acid feed. As to conditions: for DSr: 1.5 HNO3.
The nature of data set [4]: Third phase formation on contact with nitric acid.
Data set [5] in a line: Solvent stability: cesium distribution ratios as a function of contact time with 1.5 M HNO3. The method, then:
as §1, §2

The mark [6] stands for this setting: [DtBuCH18C6]/[MC-10B] 50/10 mM, 1.5 M Cs-5SB.
Setting [7] is: [DtBuCH18C6]/[MC-10B] 60/10 mM, 1.5 M Cs-5SB.
The mark [8] stands for this setting: [DtBuCH18C6]/[MC-10B] 60/15 mM, 1.5 M Cs-5SB.
[9] abbreviates: [DtBuCH18C6]/[MC-10B] 90/20 mM, 1.5 M Cs-5SB in ISOPAR L, feed 0.004 M cesium nitrate, 0.002 M strontium nitrate.
Setting [10] is: first forward extraction, 1.5 M HNO3 feed simulant, 25 °C, 0.007 M calixarene, 0.075 M DtBuCH18C6, 0.75 M Cs-7SB, 0.003 M TOA in ISOPAR L.
The mark [11] stands for this setting: first strip with 0.01 M HNO3, 35 °C, 0.007 M calixarene solvent.
[12] abbreviates: second forward extraction, 1.5 M HNO3 feed, 25 °C, 0.007 M calixarene solvent.
Setting [13] is: second strip with 0.01 M HNO3, 35 °C, 0.007 M calixarene solvent.
Setting [14] is: third forward extraction, 1.5 M HNO3 feed, 25 °C, 0.007 M calixarene solvent.
Setting [15] is: contact time 0 days with 1.5 M HNO3, 0.007 M calixarene, 0.075 M DtBuCH18C6, 0.75 M Cs-7SB, 0.003 M TOA in ISOPAR L.
Where [16] appears, read: contact time 34 days with 1.5 M HNO3.
Where [17] appears, read: contact time 70 days with 1.5 M HNO3.
[18] abbreviates: contact time 278 days with 1.5 M HNO3.

Regarding `CC(C)CCCC(C)CCOc1c2cccc1Cc1cccc3c1OCCOCCOc1ccccc1OCCOCCOc1c(cccc1Cc1cccc(c1OCCC(C)CCCC(C)C)C3)C2` (centres unmarked) [MC-10B, 1,3-alternate-25,27-di(3,7-dimethyloctyl-1-oxy)calix[4]arenebenzocrown-6], the DCs was 2.87 and 2.88 in data set [1] (setting [6]); 2.77 and 2.81 in data set [1] (setting [7]); 4.48 and 4.37 in data set [1] (setting [8]); 6.11 and 6.36 in data set [1] (setting [9]). Also, the “Cesium distribution ratio, contact E1” value in data set [1] (setting [10]) came to 3.7. Moreover, the “Cesium distribution ratio, contact St1” value in data set [1] (setting [11]) turned out to be 0.5. In data set [1] (setting [12]), the “Cesium distribution ratio, contact E2” value is listed as 1.9. Besides, in data set [1] (setting [13]), the “Cesium distribution ratio, contact St2” value turned out to be 0.2. In addition, the “Cesium distribution ratio, contact E3” value in data set [1] (setting [14]) was determined as 1.5. The “Strontium distribution ratio as a function of contact time” value in data set [2] (setting [15]) is listed as 9.6; in data set [2] (setting [16]) it was 8.5; in data set [2] (setting [17]), 9.5; in data set [2] (setting [18]), 8.0. The DSr was 4.03 and 4.11 in data set [3] (setting [6]); 4.83 and 4.90 in data set [3] (setting [7]); 4.73 and 4.69 in data set [3] (setting [8]); 6.90 and 6.94 in data set [3] (setting [9]). Besides, the “Strontium distribution ratio, contact E1” value in data set [3] (setting [10]) is on record as 9.6. The “Strontium distribution ratio, contact St1” value in data set [3] (setting [11]) is reported as 0.06. Besides, the “Strontium distribution ratio, contact E2” value in data set [3] (setting [12]) is listed as 8.6. In addition, in data set [3] (setting [13]), the “Strontium distribution ratio, contact St2” value is on record as 0.01. The “Strontium distribution ratio, contact E3” value in data set [3] (setting [14]) came to 8.3. The third phase formation result in data set [4] (up to 2 M HNO3, 0.007 M MC-10B, 0.075 M DtBuCH18C6, 0.75 M Cs-7SB in ISOPAR L) was “no formation of third phases was detected”; in data set [4] (varying MC-10B and DtBuCH18C6 concentrations, 1.5 M Cs-5SB in ISOPAR L, 1.5 HNO3) it was “No third phase formation was observed”. Further, the “Cesium distribution ratio as a function of contact time” value in data set [5] (setting [15]) was determined as 3.7; in data set [5] (setting [16]) it was 3.0; in data set [5] (setting [17]), 3.4; in data set [5] (setting [18]), 2.8.

In the case of `CCC(C)c1ccc(OCC(O)COCC(F)(F)C(F)F)cc1` (centres unmarked) [Cs-7SB, 1-(2,2,3,3-tetrafluoropropoxy)-3-(4-sec-butylphenoxy)-2-propanol, reference compound], the “nitric acid concentration above which a third phase forms” value in data set [4] (mixed extractant solvent with Cs-7SB as modifier added to aqueous feed) is given as over 1.5 M.
